# From publication PMC8146789, “20-Hydroxyecdysone, from Plant Extracts to Clinical Use: Therapeutic Potential for the Treatment of Neuromuscular, Cardio-Metabolic and Respiratory Diseases” (Biomedicines, 2021)
# Read-outs that look alike come from different tables or passages of the source.
# Tests used:
# [1] = tested on: myostatin gene expression in C2C12 cells; details: C2C12 myotubes, ref [103], cited from earlier work
# rats = tested on: rats; parameters: method as in ref [121] = [121]; 121. Ogawa S. Nishimoto N. Matsuda H. Pharmacology of ecdysones un vertebrates Invertebrate Endocrinology and Hormonal Heterophylly Burdette W.J. Springer Berlin, Germany 1974 341 344; details: ref [121]; cited from earlier work
# [2] = cited from earlier work; for dose dependence of plasma levels: increasing doses; for AUC0-t / Cmax / tmax: fasted; for AUC0-t / Cmax: n = 6, (SEM); for tmax: n = 6, (range)
# [3] = in vivo; cited from earlier work
# [4] = tested on: epididymal adipose tissue; parameters: method as in PMID 21869758; details: mice, high-fat diet, 20E 50 mg/kg/day; ref [59]; cited from earlier work
# ERα = tested on: ERα; parameters: method as in PMID 24974955; details: ref [54]; cited from earlier work
# [5] = repeated dose toxicity study (26-week); details: rat, in vivo; rats, 26-week repeated dose; Biophytis, unpublished data; read-out: No Observed Adverse Effect Level (NOAEL)
# Excerpt: (§1) More recently, a purified to pharmaceutical grade 20E (≥97% 20E purity) was used as a drug candidate in preclinical regulatory studies including safety pharmacology, genotoxicity and repeated toxicology in rodents (rats) and non-rodents (dog).
# Giardiasis = tested on: Giardiasis; parameters: method as in PMID 12224262; details: 5 mg 3× or 4×/day, 10 days; ref [167]; cited from earlier work
# [6] = repeated dose toxicity study (39-week); details: dog, in vivo; dogs, 39-week repeated dose; Biophytis, unpublished data; read-out: No Observed Adverse Effect Level (NOAEL)
# Excerpt: as §1
# [7] = parameters: method as in doi:10.1055/s-0032-1320272; details: overweight, 2 × 50 mg/day; ref [170]; cited from earlier work
# bullfrogs = details: up to 600 mg/kg in the lymph sinus, ref [121]; cited from earlier work
# [8] = parameters: method as in doi:10.1055/s-0032-1320426; details: ref [171],[172], cited from earlier work
# Erβ = tested on: Erβ; parameters: method as in PMID 18220764; details: cited from earlier work
# [9] = oral; ref [127],[128]; cited from earlier work
# mice = details: ref Ogawa et al. [121], cited from earlier work
# [10] = parameters: method as in doi:10.1055/s-0032-1320426; details: ovariectomized rats, p < 0.05; ref [171],[172]; cited from earlier work
# [11] = cited from earlier work
# [12] = parameters: method as in doi:10.1007/BF02234932; details: 15 mg/day, 10 days; ref [166]; cited from earlier work
# [13] = single oral 100 mg, ref [136],[137]
# [14] = single oral 350 mg, ref [136],[137]
# [15] = single oral 700 mg, ref [136],[137]
# [16] = single oral 1400 mg, ref [136],[137]
# [17] = slightly overweight persons, 200 mg daily
# [18] = humans, ingestion of 434 mg, ref [134]
# [19] = humans, single oral intake of 20 mg, RIA and LC-MS
structure (smiles),measurement,setting,value
"CC(C)(O)CC[C@@H](O)[C@](C)(O)[C@H]1CC[C@@]2(O)C3=CC(=O)[C@@H]4C[C@@H](O)[C@@H](O)C[C@]4(C)[C@H]3CC[C@]12C [20E, 2β,3β,14α,20R,22R,25-hexahydroxy-5β-cholest-7-en-6-one]",concentration with significant difference from control in myostatin gene expression,[1]; 0.001 to 10 μM tested,1 to 10 µM
same,myostatin gene expression,[1]; 6 h treatment,mimics the effect of IGF-1 in a dose-dependent manner
same,"sex hormonal activity, anti-inflammatory or anabolic effects",rats,did not have
same,"safety profile, adverse events","[2]; humans, SAD 100 to 1400 mg, MAD up to 450 mg twice a day for 14 days, ref [180]",no serious adverse events during SAD and MAD
same,dose dependence of plasma levels,"[2]; humans, oral, ref [136],[137]",dose-related and also apparently saturable
same,dose dependence of plasma levels,"[2]; humans, oral, ref [136],[137], listed as BIO101",increased less that dose-proportionally
same,bioavailability,"[2]; humans, oral, ref [180]",rather low
same,share of the urinary excretion within 4 h,"[2]; humans, single dose, ref [136],[137]",half of this was excreted within 4 h
same,administered 20E excreted in the urine,"[2]; humans, within 12 h of a single dose, ref [136],[137]",About 2%
same,"serum biomarkers of muscular catabolism (myoglobin, CK-MB)","[2]; older adults, after 14 days of administration (MAD), ref [180]",reduced in subjects administered the highest dose
same,AUC0-t,[2]; [13],767 (31.1) ng·h/mL
same,Cmax,[2]; [13],141 (16.6) ng/mL
same,tmax,[2]; [13],2.03 (1.00–3.02) h
same,AUC0-t,[2]; [14],1924 (40.1) ng·h/mL
same,Cmax,[2]; [14],317 (37.9) ng/mL
same,AUC0-t,[2]; [15],2578 (22.9) ng·h/mL
same,Cmax,[2]; [15],399 (24.7) ng/mL
same,tmax,[2]; [15],3.00 (2.00–4.02) h
same,AUC0-t,[2]; [16],4148 (15.9) ng·h/mL
same,Cmax,[2]; [16],710 (20.2) ng/mL
same,tmax,[2]; [16],3.50 (2.00–4.02) h
same,time of plasma titre maximum,[3],ca. 30 min
same,adipocyte diameter,[4],retains the median adipocyte diameter close to that in mice fed a low-fat diet
same,mass of epididymal fat pads,[4],counteracts both the increase in the mass of the fat pads
same,activation of ERE reporter gene,ERα,could be activated dose dependently
same,NOAEL at 26 week,[5],1000 mg/kg
same,patients with parasite elimination,Giardiasis,Parasite elimination in 68.7% of patients
same,NOAEL at 39 week,[6],1000 mg/kg
same,change in C-reactive protein,[7],−38%
same,change in body fat,[7],−7.6%
same,change in body weight,[7],−1.3%
same,change in total cholesterol,[7],−17%
same,change in triglycerides,[7],−37%
same,change in waist circumference,[7],−3.2%
same,muscle increase,[7],+2.9%
same,effects after administration,bullfrogs,no effects were seen
same,output of trial in menopause disorders,"[8]; overweight, 100 or 200 mg/day, 3 months","Prevention of metabolic syndrome and osteoporosis, reduction in body weight, reduction in plasma cholesterol and CRP; proposed for hormone replacement therapy"
same,increase of HDL,[8]; [17],10.8%
same,reduction of LDL,[8]; [17],13.9%
same,reduction of serum cholesterol,[8]; [17],10.2%
same,reduction of triglycerides,[8]; [17],31.1%
same,reduction of waist circumference,[8]; [17],2.7 cm
same,binding to nuclear receptor,Erβ,negative
same,bioavailability,[9],ca. 1%
same,LD50,mice; i.p.-injected,6400 mg/kg
same,LD50,mice; ingested,> 9000 mg/kg
same,"abdominal, bone marrow and joint fat",[10],"reduced the amount of abdominal, bone marrow and joint fat"
same,total urinary excretion of 20E,[11]; [18],5 mg
same,"urinary excretion, of the ingested amount",[11]; [18],approximately 1%
same,urinary peak level,"[11]; humans, ingestion of ca. 15 mg, ref Simon and Koolman [132]",approximately 0.5 μM
same,time of urinary peak of detectable ecdysteroids,[11]; [19],3 to 4 h
same,total quantity of detectable ecdysteroids in urine,[11]; [19],1 to 2 mg
same,effective half-time of elimination from the blood,[11]; in vivo,9 h
same,effective half-time of elimination from the urine,[11]; in vivo,3.3 h
same,time of plasma titre maximum,[11]; in vivo,ca. 30 min
same,kidney function and microcirculation,[12],Improvement of kidney function and of microcirculation
